Entries after “also recorded” stand apart in the source; their conditions may differ. Each block holds one compound with its values, some of them ahead of it.
Columns and labels:
Guinea Pigs = experiment: Effect on Big Endothelin-1-induced Increase in Airway Resistance in Guinea Pigs; type: in vivo, guinea pig
Description: Guinea pigs were first anesthetized with urethane, and then the necks were subjected to median incision, a tracheal cannula was inserted in the trachea. Spontaneous respiration was interrupted with succinylcholine (5 mg/kg, hypodermic injection), and then an artificial respirator was used to effect artificial ventilation (10 ml/air/kg, […]). The airway pressure was then measured and recorded using the Konzett and Rossler method (Arch. Exp. Path. Pharmacol., Vol. 135, p.71-74, 1940), via an airway contraction transducer from the tracheal cannula.
Examined was the influence of a representative compound of the present invention (Compound of Example 1, Isomer B) to the increase in airway pressure produced by the administration of 5 nmol/kg of big endothelin-1 through a polyethylene tube inserted into the common carotid vein. The test compound was injected into the common carotid vein 5 minutes before the administration of big endothelin-1. Also, upon completion of the experiment, the change in airway pressure obtained by blockage of the trachea was defined as a 100% increase in airway pressure, and the measured increases in airway pressure were expressed as percentages of this value. […]

[1] = test system: Isolated Guinea Pig Bronchial Smooth Muscles; experiment: Effect on Big Endothelin-1-induced Contraction in Isolated Guinea Pig Bronchial Smooth Muscles
Description: Bronchia (outer diameter approximately 2 mm) were isolated from the lung of a guinea pig, and the connective tissue, lung parenchymal tissue, etc. were peeled off, and then a ring preparation (4 mm in length) was prepared. These samples were placed in a 5 ml Magnus' tube filled with Krebs-Henseleit solution saturated with a gas mixture of 95% O2 and 5% CO2, and a change in tension was isometrically measured and recorded.
The influence of a representative compound of the present invention (Compound of Example 2, Isomer B) to the increase in the tension produced by 100 nM of big endothelin-1 was examined. The test compound was added into the Magnus' tube 40 minutes prior to the addition of big endothelin-1.
A 100% increase in the tension was defined as that in the case of no addition of the test compound (control) at 2 hours after addition of big endothelin-1, and the comparison with the increase in the tension in the cases where the test compound was added is shown in Table 3.

[2] = target: T1, endothelin-converting enzyme (ECE) (Bos taurus, UniProt P42891); experiment: ECE Activity Inhibition Test (endothelin-1 produced from big endothelin-1, RIA); type: biochemical; conditions: 10 μM test compound; 1 μM big endothelin-1; pH 7.2, 37° C., 90 minutes
T1 construct: ECE was prepared according to the method already published by Yano, et.al; endogenous in cells
T1 sequence (P42891 1-754): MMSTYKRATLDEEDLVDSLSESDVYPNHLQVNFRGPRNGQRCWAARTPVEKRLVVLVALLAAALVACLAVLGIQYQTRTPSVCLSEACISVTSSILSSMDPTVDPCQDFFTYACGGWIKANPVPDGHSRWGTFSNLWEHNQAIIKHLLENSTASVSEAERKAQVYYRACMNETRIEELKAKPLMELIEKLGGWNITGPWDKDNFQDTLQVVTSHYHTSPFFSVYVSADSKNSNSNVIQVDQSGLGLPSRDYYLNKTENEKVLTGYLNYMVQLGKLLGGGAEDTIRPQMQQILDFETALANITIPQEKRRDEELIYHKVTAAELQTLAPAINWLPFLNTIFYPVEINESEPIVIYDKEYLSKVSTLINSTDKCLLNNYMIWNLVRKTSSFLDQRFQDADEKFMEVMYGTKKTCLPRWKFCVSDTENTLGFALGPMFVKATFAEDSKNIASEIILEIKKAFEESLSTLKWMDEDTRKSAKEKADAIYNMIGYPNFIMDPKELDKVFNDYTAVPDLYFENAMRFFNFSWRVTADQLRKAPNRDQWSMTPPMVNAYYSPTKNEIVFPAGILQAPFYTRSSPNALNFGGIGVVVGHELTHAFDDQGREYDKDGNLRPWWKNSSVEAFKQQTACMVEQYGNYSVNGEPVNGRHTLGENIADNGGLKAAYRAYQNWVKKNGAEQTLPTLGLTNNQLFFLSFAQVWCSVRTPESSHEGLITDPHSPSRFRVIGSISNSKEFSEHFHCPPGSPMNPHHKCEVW
Description: ECE was prepared according to the method already published by Yano, et.al. (Biochem. Biophys. Res. Commun., Vol. 171, p.1192-1198, 1990), and 11 μg of ECE and 1 μM of big endothelin-1 were reacted with a 0.5M Tris-HCl buffer solution (pH 7.2) at 37° C. for 90 minutes in the presence or absence of a test compound, after which the amount of endothelin-1 produced thereby was determined by the RIA method, and the ECE inhibition activity of the test compound was evaluated.

[3] = test system: Isolated Pig Coronary Arteries; experiment: Effect on Big Endothelin-1-induced Contraction in Isolated Pig Coronary Arteries
Description: (§1) Pig coronary arteries were isolated, and a spiral preparation having a width of 1 mm and a length of 10 mm was prepared therefrom. These samples were then placed in a 5 ml Magnus' tube filled with Krebs-Henseleit solution saturated with a gas mixture of 95% O2 and 5% CO2, and a change in the tension was isometrically measured and recorded.
The influence of a representative compound of the present invention (Compound of Example 11) to the increase in the tension produced by 30 nM of big endothelin-1 was examined. The test compound was added to the Magnus' tube 40 minutes prior to the addition of big endothelin-1.
A 100% increase in the tension was defined as that in the case of no addition of the test compound (control) at 2 hours after addition of big endothelin-1, and the comparison with the increase in the tension in the cases where the test compound was added is shown in Table 2.

[4] = test system: Isolated Pig Coronary Arteries; experiment: Effect on endothelin-1-induced increase in tension in isolated pig coronary arteries; conditions: 0.3 nM endothelin-1
Description: as §1, with “recorded. […]” for “recorded.”

IC50 ([1]; Cavia porcellus, 100 nM big endothelin-1, guinea pig bronchia, calculated, read-out: IC50 value, inhibition of big endothelin-1-induced contraction): 16 µM
SMILES: CC(C)C[C@H](NC(CCc1cccc2ccccc12)P(=O)(O)O)C(=O)N[C@@H](Cc1c[nH]c2ccccc12)C(=O)O (single isomer, unassigned) [Example 2 (Isomer B), N-{N-[3-(1-naphthyl)-1-phosphonopropyl]-L-leucyl}-L-tryptophan]
inhibition of big endothelin-1-induced contraction (in words) ([1]; 100 nM big endothelin-1, 1-100 μm (so in the source)): dose-dependent inhibition
activity at 1 µM ([1]; Cavia porcellus, 1 μm (so in the source), 100 nM big endothelin-1, at 2 hours, read-out: Contraction (% of control)): 105%
activity at 10 µM ([1]; Cavia porcellus, 10 μm (so in the source), 100 nM big endothelin-1, at 2 hours, read-out: Contraction (% of control)): 54.9%
activity at 100 µM ([1]; Cavia porcellus, 100 μm (so in the source), 100 nM big endothelin-1, at 2 hours, read-out: Contraction (% of control)): 32.9%
effect of the test compound itself on the tension of bronchial samples ([1]; compound alone): no effect

inhibition at 10 µM [2]: 76%
SMILES: O=C(O)[C@H](Cc1c[nH]c2ccccc12)NC(=O)[C@H](Cc1ccccc1)NC(CCc1ccccc1)P(=O)(O)O (single isomer, unassigned) [Example 10 (Isomer B), N-[N-(3-phenyl-1-phosphonopropyl)-L-phenylalanil]-L-tryptophan]

inhibition at 10 µM [2]: 84%
IC50 ([3]; Sus scrofa, 30 nM big endothelin-1, pig coronary arteries, calculated, read-out: IC50 value, inhibition of big endothelin-1-induced contraction): 16 µM
SMILES: CC(C)C[C@H](NC(CCc1ccccc1)P(=O)(O)O)C(=O)N[C@@H](Cc1c[nH]c2ccccc12)C(=O)O (stereo partly drawn) [Example 11, N-[N-(3-phenyl-1-phosphonopropyl)-L-leucyl]-L-tryptophan]
inhibition of big endothelin-1-induced contraction (in words) ([3]; 30 nM big endothelin-1, 10-100 μM): dose-dependent inhibition
activity at 10 µM ([3]; Sus scrofa, 10 μM, 30 nM big endothelin-1, at 2 hours, read-out: Contraction (% of control)): 59.9%
activity at 30 µM ([3]; Sus scrofa, 30 μM, 30 nM big endothelin-1, at 2 hours, read-out: Contraction (% of control)): 35.3%
activity at 100 µM ([3]; Sus scrofa, 100 μM, 30 nM big endothelin-1, at 2 hours, read-out: Contraction (% of control)): 2.7%
effect of the compound itself on the tension of blood vessel samples ([3]; compound alone): no effect
effect on the increase in the tension caused by endothelin-1 [4]: no effect

Further lines, the compound ahead of its results:

SMILES: CC(C)C[C@H](NC(CCc1ccccc1)P(=O)(O)O)C(=O)N[C@@H](Cc1c[nH]c2ccccc12)C(=O)O (single isomer, unassigned) [Example 1 (Isomer B), N-[N-(3-phenyl-1-phosphonopropyl)-L-leucyl]-L-tryptophan]
increase in airway pressure induced by big endothelin-1 (Guinea Pigs; 0.3, 1.0 and 3.0 mg/kg into common carotid vein, 5 minutes before 5 nmol/kg big endothelin-1, FIG. 1): remarkably inhibits the increase in the airway pressure; also recorded: suppressed the increase in airway pressure induced by big endothelin-1, in a dose-dependent manner
change in airway pressure on administration of the test compound alone (Guinea Pigs; test compound alone): no change in the airway pressure

SMILES: CC(C)C[C@H](NC(CCc1c[nH]c2ccccc12)P(=O)(O)O)C(=O)N[C@@H](Cc1c[nH]c2ccccc12)C(=O)O (stereo partly drawn) [Example 6, N-[N-[3-(3-indolyl)-1-phosphonopropyl]-L-leucyl]-L-tryptophan]
inhibition at 10 µM [2]: 80%

SMILES: CC(C)C[C@H](NP(=O)(O)O[C@@H]1O[C@@H](C)[C@H](O)[C@@H](O)[C@H]1O)C(=O)N[C@@H](Cc1c[nH]c2ccccc12)C(=O)O [Phosphoramidon, reference compound]
inhibition at 10 µM [2]: 64%

Source: US5380921A, “Aminophosponic acid derivative” (Banyu Pharmaceutical Co., Ltd., priority 1993, dated 1995)
